Legend:
[1] = tested on: basal ERK1/2 phosphorylation in Malme-3M cells; test: Cellular ERK 1/2 phosphorylation assay; type: cell-based; conditions: Homo sapiens, 1 hour incubation, pERK normalized to total ERK, representative data of multiple tests
Description: Inhibition of basal ERK1/2 phosphorylation was determined by the following in vitro […], which comprises incubating cells with a compound of Formula I for 1 hour and quantifying the fluorescent pERK signal on fixed cells and normalizing to total ERK signal.
Materials and Methods: Malme-3M cells were obtained from ATCC and grown in RPMI-1640 supplemented with 10% fetal bovine serum. Cells were plated in 96-well plates at 24,000 cells/well and allowed to attach for 16-20 hours at 37° C., 5% CO2. The media was removed, and DMSO-diluted compounds were added in RPMI-1640 at a final concentration of 1% DMSO. The cells were incubated with the compounds for 1 hour at 37° C., 5% CO2. The cells were washed with PBS and fixed in 3.7% formaldehyde in PBS for 15 minutes. This was followed by washing in PBS/0.05% Tween20 and permeabilizing in −20° C. 100% MeOH for 15 minutes. Cells were washed in PBS/0.05% Tween20 then blocked in Odyssey blocking buffer (LI-COR Biosciences) for 1 hour. Antibodies to phosphorylated ERK (1:400, Cell Signaling #9106, monoclonal) and total ERK (1:400, Santa Cruz Biotechnology #sc-94, polyclonal) were added to the cells and incubated 16-20 hours at 4° C. After washing with PBS/0.05% Tween20, the cells were incubated with fluorescently-labeled secondary antibodies (1:1000 goat anti-rabbit IgG-IRDye800, Rockland and 1:500 goat anti-mouse IgG-Alexa Fluor 680, Molecular Probes) for an additional hour. Cells were then washed and analyzed for fluorescence at both wavelengths using the Odyssey Infrared Imaging System (LI-COR Biosciences). Phosphorylated ERK signal was normalized to total ERK signal.

V600E full-length B-Raf = molecular target: T1, V600E full-length B-Raf (Homo sapiens, UniProt P15056, V600E); test: B-Raf IC50 assay (incorporation of radiolabeled phosphate from [γ-33P]ATP into FSBA-modified wild-type MEK); type: biochemical
T1 construct: made in house; host or cells: Sf9 insect cells (baculovirus)
Excerpt: Determining the activity of Raf in the sample is possible by a number of direct and indirect detection methods (US 2004/0082014). Activity of human recombinant B-Raf protein may be assessed in vitro by assay of the incorporation of radio labeled phosphate to recombinant MAP kinase (MEK), a known physiologic substrate of B-Raf, according to US 2004/0127496 and WO 03/022840.
Activity of human recombinant B-Raf protein may be assessed in vitro by assay of the incorporation of radio labeled phosphate to recombinant MAP kinase (MEK), a known physiologic substrate of B-Raf, according to US 2004/0127496 and WO 03/022840. Catalytically active human recombinant B-Raf protein is obtained by purification from sf9 insect cells infected with a human B-Raf recombinant baculovirus expression vector.
Incubations were carried out at 22° C. in a Costar 3365 plate (Corning). Prior to the assay, the B-Raf and FSBA-MEK were preincubated together in assay buffer at 1.5× (20 μL of 30 nM and 1.5 μM, respectively) for 15 minutes, and the assay was initiated by the addition of 10 μL of 10 μM ATP. Following the 60-minute incubation, the assay mixtures were quenched by the addition of 100 μL of 25% TCA, the plate was mixed on a rotary shaker for 1 minute, and the product was captured on a Perkin-Elmer GF/B filter plate using a Tomtec Mach III Harvester. After sealing the bottom of the plate, […] of Bio-Safe II (Research Products International) scintillation cocktail were added to each well and the plate was top-sealed and counted in a Topcount NXT (Packard).

[2] = 4 μM ATP, 60-minute incubation, representative data of multiple tests

T1 sequence (P15056 whole entry V600E): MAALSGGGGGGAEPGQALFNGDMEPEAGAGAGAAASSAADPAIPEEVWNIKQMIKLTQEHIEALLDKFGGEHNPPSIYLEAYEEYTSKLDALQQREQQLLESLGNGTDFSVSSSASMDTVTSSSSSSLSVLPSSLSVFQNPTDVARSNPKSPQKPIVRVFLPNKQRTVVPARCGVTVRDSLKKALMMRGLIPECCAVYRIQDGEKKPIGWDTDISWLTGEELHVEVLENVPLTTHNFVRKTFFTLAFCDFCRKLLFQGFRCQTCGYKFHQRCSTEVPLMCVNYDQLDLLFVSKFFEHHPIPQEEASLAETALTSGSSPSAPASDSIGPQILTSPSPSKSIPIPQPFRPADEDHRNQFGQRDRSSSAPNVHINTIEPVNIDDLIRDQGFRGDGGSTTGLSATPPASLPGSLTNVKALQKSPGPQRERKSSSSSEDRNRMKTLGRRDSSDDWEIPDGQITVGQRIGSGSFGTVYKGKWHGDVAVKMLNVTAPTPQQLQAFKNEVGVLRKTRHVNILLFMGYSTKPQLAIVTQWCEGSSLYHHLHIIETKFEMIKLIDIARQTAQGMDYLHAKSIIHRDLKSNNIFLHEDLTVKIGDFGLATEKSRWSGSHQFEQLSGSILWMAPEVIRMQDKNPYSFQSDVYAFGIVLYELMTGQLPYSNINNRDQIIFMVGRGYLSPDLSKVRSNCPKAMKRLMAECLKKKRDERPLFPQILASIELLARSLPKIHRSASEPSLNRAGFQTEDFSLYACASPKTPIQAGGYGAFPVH

Row | Compound | IC50 (V600E full-length B-Raf; [2]) | IC50 (V600E full-length B-Raf; bound stated) | IC50 [1]
1 | CCCS(=O)(=O)Nc1ccc(F)c(C(=O)Nc2cnc3cc(-c4cccc(N5CCN(C)CC5)c4)nn3c2)c1F [Example 11, 2,6-difluoro-N-(2-(3-(4-methylpiperazin-1-yl)phenyl)pyrazolo[1,5-a]pyrimidin-6-yl)-3-(propylsulfonamido)benzamide] | 4.09 nM | < 150 nM | 9.55 nM
2 | CCCS(=O)(=O)Nc1ccc(F)c(C(=O)Nc2cnc3cc(OCCOC)nn3c2)c1Cl [Example 34, 2-chloro-6-fluoro-N-(2-(2-methoxyethoxy)pyrazolo[1,5-a]pyrimidin-6-yl)-3-(propylsulfonamido) benzamide] | 46.1 nM | < 150 nM | 126 nM
3 | CCCS(=O)(=O)Nc1ccc(F)c(C(=O)Nc2cnc3cc(OC)nn3c2)c1F [Example 1, 2,6-difluoro-N-(2-methoxypyrazolo[1,5-a]pyrimidin-6-yl)-3-(propylsulfonamido)benzamide] | 53.2 nM | < 150 nM | 68.8 nM
4 | COc1cc2ncc(NC(=O)c3c(Cl)ccc(NS(=O)(=O)CCCF)c3F)cn2n1 [Example 22, 6-chloro-2-fluoro-3-(3-fluoropropyl-sulfonamido)-N-(2-methoxypyrazolo [1,5-a]pyrimidin-6-yl)benzamide] | 7.78 nM | < 150 nM | 42.8 nM

The next lines start with results.

Row | IC50 (V600E full-length B-Raf; [2]) | IC50 (V600E full-length B-Raf; bound stated) | Compound | IC50 [1]
5 | 260 nM | < 300 nM | COc1cc2ncc(NC(=O)c3c(F)ccc(NS(=O)(=O)N4CCCC4)c3F)cn2n1 [Example 24, 2,6-difluoro-N-(2-methoxypyrazolo [1,5-a]pyrimidin-6-yl)-3-(pyrrolidine-1-sulfonamido) benzamide] | 382 nM
6 | 14.7 nM | < 150 nM | CCCS(=O)(=O)Nc1ccc(F)c(C(=O)Nc2cnc3cc(-c4cccnc4)nn3c2)c1F [Example 10, 2,6-difluoro-3-(propylsulfonamido)-N-(2-(pyridin-3-yl)pyrazolo[1,5-a]pyrimidin-6-yl)benzamide] | 26.7 nM
7 | 367 nM |  | CCCS(=O)(=O)Nc1ccc(F)c(C(=O)Nc2cnc3cc(N4CCCC4)nn3c2)c1F [Example 17, 2,6-difluoro-3-(propylsulfonamido)-N-(2-(pyrrolidin-1-yl)pyrazolo[1,5-a]pyrimidin-6-yl)benzamide] | 664 nM
